Test results reported in ChEMBL document CHEMBL1138058, “Discovery and evaluation of N-cyclopropyl- 2,4-difluoro-5-((2-(pyridin-2-ylamino)thiazol-5-ylmethyl)amino)benzamide (BMS-605541), a selective and orally efficacious inhibitor of vascular endothelial growth factor receptor-2” (J Med Chem, 2006).

Tests used:
HUVEC = test: Antiproliferative activity against VEGF-stimulated HUVEC; details: Homo sapiens
L2987 [1] = test: Antiproliferative activity against L2987 cells; details: Homo sapiens
[2] = target: Cyclin-dependent kinase 2 (Homo sapiens, UniProt P24941); test: Inhibition of CDK2
[3] = target: Vascular endothelial growth factor receptor 2 (Homo sapiens, UniProt P35968)
Chain of Vascular endothelial growth factor receptor 2 (P35968 whole entry): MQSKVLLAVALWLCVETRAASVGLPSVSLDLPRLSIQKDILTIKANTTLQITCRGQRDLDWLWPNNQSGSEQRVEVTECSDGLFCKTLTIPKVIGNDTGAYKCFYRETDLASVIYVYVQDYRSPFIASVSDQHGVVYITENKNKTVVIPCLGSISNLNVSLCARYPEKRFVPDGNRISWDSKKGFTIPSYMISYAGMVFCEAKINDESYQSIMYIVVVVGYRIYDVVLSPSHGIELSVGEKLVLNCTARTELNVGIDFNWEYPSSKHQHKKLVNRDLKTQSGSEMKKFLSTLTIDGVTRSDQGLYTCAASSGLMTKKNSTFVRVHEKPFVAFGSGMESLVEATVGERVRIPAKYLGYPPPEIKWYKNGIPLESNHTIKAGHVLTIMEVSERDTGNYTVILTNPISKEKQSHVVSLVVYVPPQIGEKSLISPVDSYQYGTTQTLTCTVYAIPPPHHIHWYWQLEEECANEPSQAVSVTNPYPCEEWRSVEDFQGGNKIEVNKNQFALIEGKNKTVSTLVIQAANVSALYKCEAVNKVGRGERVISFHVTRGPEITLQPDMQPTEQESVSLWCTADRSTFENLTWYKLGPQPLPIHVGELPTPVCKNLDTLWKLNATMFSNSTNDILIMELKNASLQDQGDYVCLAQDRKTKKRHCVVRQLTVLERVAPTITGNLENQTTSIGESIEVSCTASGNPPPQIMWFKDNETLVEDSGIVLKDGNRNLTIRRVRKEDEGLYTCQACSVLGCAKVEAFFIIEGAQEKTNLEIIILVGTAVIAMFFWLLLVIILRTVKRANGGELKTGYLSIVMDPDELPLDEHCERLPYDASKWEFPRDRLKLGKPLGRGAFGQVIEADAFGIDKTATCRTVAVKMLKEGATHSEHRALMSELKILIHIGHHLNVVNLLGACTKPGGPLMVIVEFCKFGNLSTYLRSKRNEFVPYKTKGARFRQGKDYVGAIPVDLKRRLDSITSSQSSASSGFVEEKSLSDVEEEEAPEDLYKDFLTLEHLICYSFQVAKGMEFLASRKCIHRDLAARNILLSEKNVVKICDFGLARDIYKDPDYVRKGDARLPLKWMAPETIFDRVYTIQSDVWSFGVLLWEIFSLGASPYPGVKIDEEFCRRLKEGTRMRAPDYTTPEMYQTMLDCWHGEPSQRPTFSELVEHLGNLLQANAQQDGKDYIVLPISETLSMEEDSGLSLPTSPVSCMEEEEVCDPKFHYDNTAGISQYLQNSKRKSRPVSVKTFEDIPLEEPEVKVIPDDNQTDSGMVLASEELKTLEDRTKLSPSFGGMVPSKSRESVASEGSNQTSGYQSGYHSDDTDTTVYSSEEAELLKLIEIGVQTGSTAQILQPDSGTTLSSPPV

[4] = target: Protein kinase C delta type (Homo sapiens, UniProt Q05655); test: Inhibition of PKCdelta
[5] = target: Protein kinase C zeta type (Homo sapiens, UniProt Q05513); test: Inhibition of PKCzeta
[6] = target: Receptor tyrosine-protein kinase erbB-2 (Homo sapiens, UniProt P04626); test: Inhibition of Her2
[7] = target: Tyrosine-protein kinase ITK/TSK (Homo sapiens, UniProt Q08881); test: Inhibition of Itk
Chain of Tyrosine-protein kinase ITK/TSK (Q08881 whole entry): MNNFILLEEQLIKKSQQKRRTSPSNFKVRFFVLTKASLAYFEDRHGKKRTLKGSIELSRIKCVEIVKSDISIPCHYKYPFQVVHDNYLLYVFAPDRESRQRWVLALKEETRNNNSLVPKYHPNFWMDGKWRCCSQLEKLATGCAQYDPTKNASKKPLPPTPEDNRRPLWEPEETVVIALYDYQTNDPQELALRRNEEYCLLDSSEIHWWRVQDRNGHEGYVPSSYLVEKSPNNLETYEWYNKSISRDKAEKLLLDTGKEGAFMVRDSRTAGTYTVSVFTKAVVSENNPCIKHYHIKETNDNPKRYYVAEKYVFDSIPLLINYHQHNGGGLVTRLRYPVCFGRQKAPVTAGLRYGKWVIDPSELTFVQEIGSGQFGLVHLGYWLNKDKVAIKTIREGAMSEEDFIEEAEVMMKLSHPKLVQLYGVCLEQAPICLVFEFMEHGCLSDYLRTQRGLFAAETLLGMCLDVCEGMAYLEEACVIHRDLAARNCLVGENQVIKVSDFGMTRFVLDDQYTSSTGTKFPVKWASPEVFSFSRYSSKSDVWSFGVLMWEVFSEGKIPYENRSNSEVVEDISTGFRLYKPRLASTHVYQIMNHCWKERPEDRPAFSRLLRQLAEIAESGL

[8] = target: Tyrosine-protein kinase SYK (Homo sapiens, UniProt P43405); test: Inhibition of Syk
[9] = target: Tyrosine-protein kinase JAK3 (Homo sapiens, UniProt P52333); test: Inhibition of JAK3
[10] = target: MAP kinase-activated protein kinase 2 (Homo sapiens, UniProt P49137); test: Inhibition of MAPKAPK2
Chain of MAP kinase-activated protein kinase 2 (P49137 whole entry): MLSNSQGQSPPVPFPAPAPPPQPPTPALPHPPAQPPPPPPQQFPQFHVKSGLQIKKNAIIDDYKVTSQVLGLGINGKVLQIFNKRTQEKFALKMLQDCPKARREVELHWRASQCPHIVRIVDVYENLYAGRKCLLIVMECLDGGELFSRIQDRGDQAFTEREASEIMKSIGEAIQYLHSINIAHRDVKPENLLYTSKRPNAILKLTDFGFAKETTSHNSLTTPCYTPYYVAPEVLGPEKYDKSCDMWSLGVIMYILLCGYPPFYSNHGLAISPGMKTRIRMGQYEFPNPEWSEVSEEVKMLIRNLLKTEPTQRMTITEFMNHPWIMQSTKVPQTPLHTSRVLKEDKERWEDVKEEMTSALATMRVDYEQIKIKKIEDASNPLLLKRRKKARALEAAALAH

[11] = Cmax in Balb/C mouse at 90 mg/kg, po; type: ADME, organism-based; set-up: dose 90 mg/kg, route oral; details: in vivo
[12] = Tmax in Balb/C mouse at 90 mg/kg, po; type: ADME, organism-based; set-up: dose 90 mg/kg, route oral; details: in vivo
Mus musculus = test: AUC (0-24h) in Balb/C mouse at 90 mg/kg, po; type: ADME, organism-based, Plasma; set-up: time < 24 hr, dose 90 mg/kg, route oral; details: in vivo
[13] = Half life in Balb/C mouse at 90 mg/kg, po; type: ADME, organism-based; set-up: dose 90 mg/kg, route oral; details: in vivo
[14] = Mean residence time in Balb/C mouse at 90 mg/kg, po; type: ADME, organism-based; set-up: dose 90 mg/kg, route oral; details: in vivo
[15] = Clearance in Balb/C mouse at 10 mg/kg, iv; type: ADME, organism-based; set-up: dose 10 mg/kg, route intravenous; details: in vivo
[16] = Volume of distribution in Balb/C mouse at 10 mg/kg, iv; type: ADME, organism-based; set-up: dose 10 mg/kg, route intravenous; details: in vivo, read-out: Vss
[17] = Bioavailability in Balb/C mouse at 90 mg/kg, po; type: ADME, organism-based; details: in vivo
[18] = Cmax in Sprague-Dawley rat at 50 mg/kg, po; type: ADME, organism-based; set-up: dose 50 mg/kg, route oral; details: in vivo
[19] = Tmax in Sprague-Dawley rat at 50 mg/kg, po; type: ADME, organism-based; set-up: dose 50 mg/kg, route oral; details: in vivo
Rattus norvegicus = test: AUC in Sprague-Dawley rat at 50 mg/kg, po; type: ADME, organism-based, Plasma; set-up: dose 50 mg/kg, route oral; details: in vivo
[20] = Half life in Sprague-Dawley rat at 50 mg/kg, po; type: ADME, organism-based; set-up: dose 50 mg/kg, route oral; details: in vivo
[21] = Mean residence time in Sprague-Dawley rat at 50 mg/kg, po; type: ADME, organism-based; set-up: dose 50 mg/kg, route oral; details: in vivo
[22] = Clearance in Sprague-Dawley rat at 10 mg/kg, iv; type: ADME, organism-based; set-up: dose 10 mg/kg, route intravenous; details: in vivo
[23] = Volume of distribution in Sprague-Dawley rat at 10 mg/kg, iv; type: ADME, organism-based; set-up: dose 10 mg/kg, route intravenous; details: in vivo, read-out: Vss
[24] = Bioavailability in Sprague-Dawley rat at 50 mg/kg, po; type: ADME, organism-based; details: in vivo
[25] = Cmax in cynomolgus monkey at 5 mg/kg, po; type: ADME, organism-based, Macaca fascicularis; set-up: dose 5 mg/kg, route oral; details: in vivo
[26] = Tmax in cynomolgus monkey at 5 mg/kg, po; type: ADME, organism-based, Macaca fascicularis; set-up: dose 5 mg/kg, route oral; details: in vivo
Cynomolgus monkey [27] = test: AUC in cynomolgus monkey at 5 mg/kg, po; type: ADME, organism-based, Macaca fascicularis, Plasma; set-up: dose 5 mg/kg, route oral; details: in vivo
[28] = target: Vascular endothelial growth factor receptor 1 (Homo sapiens, UniProt P17948); test: Inhibition of VEGFR1
[29] = target: Platelet-derived growth factor receptor beta (Homo sapiens, UniProt P09619); test: Inhibition of PDGFR beta
[30] = target: Mast/stem cell growth factor receptor Kit (Homo sapiens, UniProt P10721); test: Inhibition of c-kit
[31] = target: Fibroblast growth factor receptor 1 (Homo sapiens, UniProt P11362); test: Inhibition of FGFR1
Chain of Fibroblast growth factor receptor 1 (P11362 whole entry): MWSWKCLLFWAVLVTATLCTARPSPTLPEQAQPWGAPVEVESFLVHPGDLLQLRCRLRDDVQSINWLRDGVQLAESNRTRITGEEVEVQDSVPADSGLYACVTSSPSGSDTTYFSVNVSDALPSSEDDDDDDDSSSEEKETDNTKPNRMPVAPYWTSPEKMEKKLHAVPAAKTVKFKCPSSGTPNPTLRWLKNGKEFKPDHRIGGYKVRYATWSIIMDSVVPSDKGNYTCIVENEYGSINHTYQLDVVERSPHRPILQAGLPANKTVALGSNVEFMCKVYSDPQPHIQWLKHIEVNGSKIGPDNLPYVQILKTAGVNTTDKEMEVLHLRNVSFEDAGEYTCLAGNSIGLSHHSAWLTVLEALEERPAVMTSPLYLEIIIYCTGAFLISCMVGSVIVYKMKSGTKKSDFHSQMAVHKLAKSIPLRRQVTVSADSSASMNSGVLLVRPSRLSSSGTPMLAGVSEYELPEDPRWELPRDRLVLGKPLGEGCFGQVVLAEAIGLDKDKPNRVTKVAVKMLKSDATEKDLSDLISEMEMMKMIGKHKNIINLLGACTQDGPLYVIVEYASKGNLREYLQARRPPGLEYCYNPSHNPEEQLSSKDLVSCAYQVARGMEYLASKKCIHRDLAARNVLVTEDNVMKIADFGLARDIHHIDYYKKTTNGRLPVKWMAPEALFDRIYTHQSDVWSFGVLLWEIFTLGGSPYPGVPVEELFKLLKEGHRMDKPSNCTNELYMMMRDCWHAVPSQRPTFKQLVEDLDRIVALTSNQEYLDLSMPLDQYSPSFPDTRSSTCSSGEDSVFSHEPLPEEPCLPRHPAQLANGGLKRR

[32] = target: Glycogen synthase kinase-3 (Homo sapiens, UniProt P49840+P49841); test: Inhibition of GSK3; type: protein assay
[33] = target: Dual specificity mitogen-activated protein kinase kinase 1 (Homo sapiens, UniProt Q02750); test: Inhibition of MEK
[34] = target: Serine/threonine-protein kinase AKT (Homo sapiens, UniProt P31751+Q9Y243+P31749); test: Inhibition of AKT; type: protein assay
MAP kinase p38 = MAP kinase p38 (Homo sapiens, UniProt O15264+Q15759+Q16539+P53778); test: Inhibition of p38; type: protein assay
[35] = target: Proto-oncogene tyrosine-protein kinase Src (Homo sapiens, UniProt P12931); test: Inhibition of Src
Chain of Proto-oncogene tyrosine-protein kinase Src (P12931 2-536 limits assumed): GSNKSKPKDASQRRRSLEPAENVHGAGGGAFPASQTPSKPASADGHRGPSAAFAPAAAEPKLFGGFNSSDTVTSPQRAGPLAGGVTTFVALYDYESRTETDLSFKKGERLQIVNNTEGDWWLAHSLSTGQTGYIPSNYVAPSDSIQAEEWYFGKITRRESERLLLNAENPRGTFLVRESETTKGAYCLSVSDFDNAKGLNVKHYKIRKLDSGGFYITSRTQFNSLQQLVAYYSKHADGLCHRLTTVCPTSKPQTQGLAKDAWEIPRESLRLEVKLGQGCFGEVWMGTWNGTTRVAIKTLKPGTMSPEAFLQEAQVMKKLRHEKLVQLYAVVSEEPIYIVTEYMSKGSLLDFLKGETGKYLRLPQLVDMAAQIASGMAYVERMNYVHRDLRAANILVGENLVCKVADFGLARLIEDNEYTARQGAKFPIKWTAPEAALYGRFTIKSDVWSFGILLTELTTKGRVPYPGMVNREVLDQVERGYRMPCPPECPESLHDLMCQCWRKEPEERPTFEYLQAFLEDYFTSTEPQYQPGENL

[36] = target: Inhibitor of NF-kappa-B kinase (IKK) (Homo sapiens, UniProt O14920+O15111+Q9Y6K9); test: Inhibition of IKK; type: protein-complex assay
SRSF protein kinase 1 = SRSF protein kinase 1 (Homo sapiens, UniProt Q96SB4); test: Inhibition of SRPK1
[37] = target: Insulin-like growth factor 1 receptor (Homo sapiens, UniProt P08069); test: Inhibition of IGF1R
Chain of Insulin-like growth factor 1 receptor (P08069 31-736 limits assumed): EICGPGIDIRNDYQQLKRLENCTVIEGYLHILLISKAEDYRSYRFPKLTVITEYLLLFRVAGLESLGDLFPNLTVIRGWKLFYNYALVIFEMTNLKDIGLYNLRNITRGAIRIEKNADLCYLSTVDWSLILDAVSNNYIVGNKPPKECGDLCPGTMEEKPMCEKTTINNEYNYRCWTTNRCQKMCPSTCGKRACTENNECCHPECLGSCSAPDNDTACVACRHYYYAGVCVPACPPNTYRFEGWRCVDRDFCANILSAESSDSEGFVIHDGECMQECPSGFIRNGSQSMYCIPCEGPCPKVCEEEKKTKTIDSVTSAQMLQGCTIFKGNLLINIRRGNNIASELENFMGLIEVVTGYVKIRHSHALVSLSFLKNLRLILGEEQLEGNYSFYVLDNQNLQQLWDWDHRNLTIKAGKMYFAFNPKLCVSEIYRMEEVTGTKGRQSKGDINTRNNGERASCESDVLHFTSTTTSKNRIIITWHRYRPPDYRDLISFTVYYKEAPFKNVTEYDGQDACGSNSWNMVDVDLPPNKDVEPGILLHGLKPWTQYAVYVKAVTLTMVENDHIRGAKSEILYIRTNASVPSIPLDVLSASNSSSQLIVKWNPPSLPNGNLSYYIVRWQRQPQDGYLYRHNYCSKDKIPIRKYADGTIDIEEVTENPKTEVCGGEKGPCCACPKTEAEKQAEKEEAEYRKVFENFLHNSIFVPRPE
Chain of Insulin-like growth factor 1 receptor (P08069 741-1367 limits assumed): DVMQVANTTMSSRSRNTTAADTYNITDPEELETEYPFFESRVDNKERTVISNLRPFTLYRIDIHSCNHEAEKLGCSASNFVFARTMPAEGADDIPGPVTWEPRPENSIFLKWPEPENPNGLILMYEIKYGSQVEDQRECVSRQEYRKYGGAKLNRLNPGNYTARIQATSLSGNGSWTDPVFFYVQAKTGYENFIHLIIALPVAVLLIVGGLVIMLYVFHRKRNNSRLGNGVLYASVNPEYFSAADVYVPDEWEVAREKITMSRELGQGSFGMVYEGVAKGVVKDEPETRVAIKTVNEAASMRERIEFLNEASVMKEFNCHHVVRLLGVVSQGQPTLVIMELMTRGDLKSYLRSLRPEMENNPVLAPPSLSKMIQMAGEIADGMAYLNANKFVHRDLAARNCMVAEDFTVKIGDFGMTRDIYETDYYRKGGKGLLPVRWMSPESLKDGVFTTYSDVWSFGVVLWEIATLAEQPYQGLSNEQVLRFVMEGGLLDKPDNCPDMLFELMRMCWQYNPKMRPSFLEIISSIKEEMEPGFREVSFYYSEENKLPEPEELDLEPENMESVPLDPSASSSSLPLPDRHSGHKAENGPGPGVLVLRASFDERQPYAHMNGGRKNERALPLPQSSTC

[38] = target: Protein kinase C alpha type (Homo sapiens, UniProt P17252); test: Inhibition of PKCalpha
[39] = target: Protein kinase C eta type (Homo sapiens, UniProt P24723); test: Inhibition of PKCeta
HCT-116 [40] = test: Inhibition of tumor growth in Athymic mouse xenografted with HCT116 at 25 mg/kg after 14 days; type: functional, Homo sapiens; details: HCT-116, 336 h, read-out: TGI
HCT-116 [41] = test: Inhibition of tumor growth in Athymic mouse xenografted with HCT116 at 50 mg/kg after 14 days; type: functional, Homo sapiens; details: HCT-116, 336 h, read-out: TGI
[42] = target: Voltage-gated inwardly rectifying potassium channel KCNH2 (Homo sapiens, UniProt Q12809); test: Inhibition of human ERG expressed in HEK293 cells; type: cell-based
[43] = Half life in cynomolgus monkey at 5 mg/kg, po; type: ADME, organism-based, Macaca fascicularis; set-up: dose 5 mg/kg, route oral; details: in vivo
[44] = Mean residence time in cynomolgus monkey at 5 mg/kg, po; type: ADME, organism-based, Macaca fascicularis; set-up: dose 5 mg/kg, route oral; details: in vivo
[45] = Bioavailability in cynomolgus monkey at 5 mg/kg, po; type: ADME, organism-based, Macaca fascicularis; details: in vivo
L2987 [46] = test: Inhibition of tumor growth in Athymic mouse xenografted with L2987 at 60 mg/kg after 14 days; type: functional, Homo sapiens; details: L2987, 336 h, read-out: TGI
L2987 [47] = test: Inhibition of tumor growth in Athymic mouse xenografted with L2987 at 90 mg/kg after 14 days; type: functional, Homo sapiens; details: L2987, 336 h, read-out: TGI
L2987 [48] = test: Inhibition of tumor growth in Athymic mouse xenografted with L2987 at 180 mg/kg after 14 days; type: functional, Homo sapiens; details: L2987, 336 h, read-out: TGI
L2987 [49] = test: Inhibition of tumor growth in Athymic mouse xenografted with L2987 at 25 mg/kg after 14 days; type: functional, Homo sapiens; details: L2987, 336 h, read-out: TGI
L2987 [50] = test: Inhibition of tumor growth in Athymic mouse xenografted with L2987 at 50 mg/kg after 14 days; type: functional, Homo sapiens; details: L2987, 336 h, read-out: TGI
HCT-116 [51] = test: Inhibition of tumor growth in Athymic mouse xenografted with HCT116 at 12.5 mg/kg after 14 days; type: functional, Homo sapiens; details: HCT-116, 336 h, read-out: TGI
[52] = target: Vascular endothelial growth factor receptor 2 (Mus musculus) (UniProt P35918); test: Inhibition of FLK1
[53] = Clearance in cynomolgus monkey at 1 mg/kg, iv; details: in vivo
Cynomolgus monkey [54] = test: Volume of distribution in cynomolgus monkey at 1 mg/kg, iv; details: in vivo

O=C(NCc1ccccn1)c1ccc(F)c(NCc2cnc(Nc3ccccn3)s2)c1
IC50 (HUVEC): 0.053 µM | IC50 (L2987 [1]): > 2.5 µM

CONC(=O)c1cccc(CSc2cnc(Nc3ccccn3)s2)c1
IC50 (HUVEC): 0.11 µM | IC50 (L2987 [1]): > 2.5 µM

O=C(NC1CCCC1)c1ccc(F)c(NCc2cnc(Nc3ccccn3)s2)c1
IC50 (L2987 [1]): > 2.5 µM

COc1ccc(C(=O)Nc2ncc(SCc3ncc(C(C)(C)C)o3)s2)cc1OC
IC50 [2]: 0.05 µM | IC50 [3]: 1.9 µM

O=C(NC1CC1)c1cc(NCc2cnc(Nc3ccccn3)s2)c(F)cc1F
IC50 [4]: > 40 µM | IC50 [5]: > 40 µM | IC50 [6]: > 50 µM | IC50 [7]: > 50 µM | IC50 [8]: > 50 µM | IC50 [9]: > 50 µM | IC50 [10]: > 50 µM | Cmax [11]: 148 µM | Tmax [12]: 0.5 h | AUC (Mus musculus): 649 µM·h | half-life [13]: 1.7 h | MRT [14]: 3.4 h | clearance [15]: 0.708 L/h/kg | Vd [16]: 1.7 L/kg | bioavailability [17]: 100% | Cmax [18]: 44 µM | Tmax [19]: 2 h | AUC (Rattus norvegicus): 202 µM·h | half-life [20]: 2.2 h | MRT [21]: 3.5 h | clearance [22]: 0.816 L/h/kg | Vd [23]: 1.1 L/kg | bioavailability [24]: 100% | Cmax [25]: 8 µM | Tmax [26]: 0.75 h | AUC (Cynomolgus monkey [27]): 28.5 µM·h | IC50 (HUVEC): 0.025 µM | IC50 (L2987 [1]): > 2.5 µM | IC50 [2]: > 10 µM | IC50 [28]: 0.4 µM | IC50 [29]: 0.2 µM | IC50 [30]: 0.37 µM | IC50 [31]: > 5 µM | IC50 [32]: > 5 µM | IC50 [33]: > 5 µM | IC50 [34]: > 5 µM | IC50 (MAP kinase p38): > 5 µM | IC50 [35]: > 10 µM | IC50 [36]: > 10 µM | IC50 (SRSF protein kinase 1): > 10 µM | IC50 [37]: > 25 µM | IC50 [38]: > 40 µM | IC50 [39]: > 40 µM | inhibition in vivo at 25 mg/kg (HCT-116 [40]): 51% | inhibition in vivo at 50 mg/kg (HCT-116 [41]): 64% | IC50 [42]: 16.6 µM | half-life [43]: 7.1 h | MRT [44]: 7.9 h | bioavailability [45]: 52% | inhibition in vivo at 60 mg/kg (L2987 [46]): 16% | inhibition in vivo at 90 mg/kg (L2987 [47]): 55% | inhibition in vivo at 180 mg/kg (L2987 [48]): 67% | inhibition in vivo at 25 mg/kg (L2987 [49]): 23% | inhibition in vivo at 50 mg/kg (L2987 [50]): 67% | inhibition in vivo at 12.5 mg/kg (HCT-116 [51]): 21% | IC50 [3]: 0.023 µM | IC50 [52]: 0.04 µM | clearance [53]: 0.234 L/h/kg | Vss (Cynomolgus monkey [54]): 1.6 L/kg

O=C(NCc1ccccc1)c1ccc(F)c(NCc2cnc(Nc3ccccn3)s2)c1
IC50 (HUVEC): 0.12 µM | IC50 (L2987 [1]): > 2.5 µM

CNC(=O)c1cc(NCc2cnc(Nc3ccccn3)s2)c(F)cc1F
IC50 (HUVEC): 0.052 µM | IC50 (L2987 [1]): > 2.5 µM

O=C(NC1CC1)c1ccc(F)c(NCc2cnc(Nc3ccccn3)s2)c1
IC50 (HUVEC): 0.014 µM | IC50 (L2987 [1]): > 2.5 µM

CNC(=O)c1cccc(NCc2cnc(Nc3ccccn3)s2)c1
IC50 (L2987 [1]): > 2.5 µM

CNC(=O)c1ccc(F)c(NCc2cnc(Nc3ccccn3)s2)c1
IC50 (HUVEC): 0.02 µM | IC50 (L2987 [1]): > 2.5 µM

O=C(NCCN1CCOCC1)c1ccc(F)c(NCc2cnc(Nc3ccccn3)s2)c1
IC50 (L2987 [1]): > 2.5 µM

CNC(=O)c1cccc(CSc2cnc(Nc3ccccn3)s2)c1
IC50 (L2987 [1]): > 2.5 µM

O=C(NC1CC1)c1ccc(F)c(CCc2cnc(Nc3ccccn3)s2)c1
IC50 (HUVEC): 0.005 µM | IC50 (L2987 [1]): > 2.5 µM
